Measurements published in patent US8569344B2, “N-piperidinyl acetamide derivatives as calcium channel blockers” (Zalicus Pharmaceuticals Ltd., priority 2008, dated 2013).
Read-outs that look alike come from different tables or passages of the source.

Assays:
[1] = target: T1, human α1G T-type channels (Homo sapiens, UniProt O43497); experiment: T-type calcium channel block, whole cell patch clamp in HEK cells (α1G); format: cell-based; conditions: HEK cells, patch clamp, mainly non-inactivated protocol; values above 10 μM shown as 10 μM, below 0.30 μM shown as 0.30 μM; read-out: T-type Calcium Channel Block α1G IC50
T1 construct: expressed in transfected cells; host or cells: HEK 293

[2] = target: T2, human α1H T-type channels (Homo sapiens, UniProt O95180); experiment: T-type calcium channel block, whole cell patch clamp in HEK cells (α1H); format: cell-based; conditions: HEK cells, patch clamp, mainly non-inactivated protocol; values above 10 μM shown as 10 μM; read-out: T-type Calcium Channel Block α1H IC50
T2 construct: expressed in transfected cells; host or cells: HEK 293

hERG K+ channel = hERG K+ channel (Homo sapiens, UniProt Q12809); experiment: hERG K+ Channel Block; format: cell-based
[3] = tested on: absence seizures in GAERS rats; experiment: GAERS (Genetic Absence Epilepsy Rats from Strasbourg) epilepsy model, EEG spike and wave discharges; format: in vivo, rat; conditions: for Percent Recording Time in Seizure Activity, Baseline: 60 minutes pre-injection EEG recording; for Percent Recording Time in Seizure Activity, Post-injection / percentage of time in seizure activity compared to both baseline and vehicle: IP 30 mg/kg; for Percent Recording Time in Seizure Activity, Post-injection: 120 minutes post-injection EEG recording starting 15 minutes post-drug
Text: The GAERS (Genetic Absence Epilepsy Rats from Strasbourg) is noted for its long and frequently recurring absence seizure episodes. […] Eight female GAERS rats, bred in the Ludwig Institute for Cancer Research, were used for this study. Rats weighed between 180 and 250 g and aged between 18 and 26 weeks at the start of the experiment.
Electrodes were made in our laboratory by soldering together gold-plated sockets (220-S02 Ginder Scientific, VA, Canada), stainless steel teflon coated wire (SDR clinical technology, NSW, Australia) and a small stainless steel screw (1.4×3 mm, Mr. Specks, Australia). Animals were anaethetised with inhalation of Isoflurane in equal parts of medical air and oxygen (5% induction, 2.5-1.5% maintenance) or alternatively by intraperitoneal injection with xylazine (10 mg/kg) and ketamine (75 mg/kg). The animals were fixated in a stereotaxic frame by means of ear bars. A midline incision on the scalp was made, skin and connective tissue was scraped and pushed laterally to expose underlying skull. 6 holes were drilled bilaterally, 2 in the frontal bone and 4 in the parietal bone, approximately 2 mm anterior to bregma, and 4 and 10 mm posterior to bregma. 6 electrodes were implanted in the holes, and gold-plated sockets were clipped into 9-pin ABS plug (GS09PLG-220, Ginder Scientific, Canada). 2 two side-anchoring screws were placed laterally into skull to improve strength of cap fixation, then caps were held in place with dental cement.
Post-operatively, animals were given the analgesic Rimadyl (4 mg/kg), placed in their cages on a heat mat, and observed until recovery. Rats were caged separately throughout the study, weighed and health-checked daily, and were allowed 7 days to recover prior to commencement of the experimental procedures. Rats were allowed free access to rodent chow (brand, WA stock feeders) and water under 12:12 light dark conditions in the Biological Research Facility of the Department of Medicine (RMH).
Prior to first drug treatment, rats were tested for absence-type seizures, which are accompanied by generalised spike and wave discharges (SWD) on an EEG recording. Testing, and all further experiments were performed in a quiet, well lit room with rats in their home cages. Rats were connected via 6-channel wire cables, which were cut and soldered to 6 gold-plated pins inserted into a 9 pin socket. Cables were connected to a computer running Compumedics™ EEG acquisition software (Melbourne, Australia). […] On week 1, day 1 after the acclimation period following surgical implantation of subdural electrodes, 4 animals (#1-4) were habituated with the cable connected for 15 minutes, then had their SWDs recorded for 60 minutes as baseline. Immediately following baseline, rats were given one of the test, reference or control articles according to the treatment schedule, and target period was recorded from 15 after injection for 120 minutes. Animals were monitored throughout the experiment, and were kept quietly wakeful during baseline and target periods
The seizure expression for the 60 minutes pre-injection and 120 minutes post-injection EEG recording (starting 15 minutes post-drug administration) was quantified by marking the start and finish of the burst of SWDs. This was done with the assistance of SWCFinder® software which has been custom designed to quantitate GAERS seizures, and researchers were blinded to the nature of the drug administered, whereby the analysis was performed blinded. Standard criteria for GAERS seizures is an SWD burst of amplitude of more than three times baseline, a frequency of 7 to 12 Hz, and a duration of longer than 0.5 s. From this, the total percent time spent in seizure over the 120 minutes post-injection EEG recording was determined (percentage time in seizure) as the primary outcome variable.

[4] = tested on: spinal nerve ligation model of neuropathic pain; conditions: rats; Dogrul et al., Pain (2003); cited from earlier work

T1 sequence (O43497 whole entry): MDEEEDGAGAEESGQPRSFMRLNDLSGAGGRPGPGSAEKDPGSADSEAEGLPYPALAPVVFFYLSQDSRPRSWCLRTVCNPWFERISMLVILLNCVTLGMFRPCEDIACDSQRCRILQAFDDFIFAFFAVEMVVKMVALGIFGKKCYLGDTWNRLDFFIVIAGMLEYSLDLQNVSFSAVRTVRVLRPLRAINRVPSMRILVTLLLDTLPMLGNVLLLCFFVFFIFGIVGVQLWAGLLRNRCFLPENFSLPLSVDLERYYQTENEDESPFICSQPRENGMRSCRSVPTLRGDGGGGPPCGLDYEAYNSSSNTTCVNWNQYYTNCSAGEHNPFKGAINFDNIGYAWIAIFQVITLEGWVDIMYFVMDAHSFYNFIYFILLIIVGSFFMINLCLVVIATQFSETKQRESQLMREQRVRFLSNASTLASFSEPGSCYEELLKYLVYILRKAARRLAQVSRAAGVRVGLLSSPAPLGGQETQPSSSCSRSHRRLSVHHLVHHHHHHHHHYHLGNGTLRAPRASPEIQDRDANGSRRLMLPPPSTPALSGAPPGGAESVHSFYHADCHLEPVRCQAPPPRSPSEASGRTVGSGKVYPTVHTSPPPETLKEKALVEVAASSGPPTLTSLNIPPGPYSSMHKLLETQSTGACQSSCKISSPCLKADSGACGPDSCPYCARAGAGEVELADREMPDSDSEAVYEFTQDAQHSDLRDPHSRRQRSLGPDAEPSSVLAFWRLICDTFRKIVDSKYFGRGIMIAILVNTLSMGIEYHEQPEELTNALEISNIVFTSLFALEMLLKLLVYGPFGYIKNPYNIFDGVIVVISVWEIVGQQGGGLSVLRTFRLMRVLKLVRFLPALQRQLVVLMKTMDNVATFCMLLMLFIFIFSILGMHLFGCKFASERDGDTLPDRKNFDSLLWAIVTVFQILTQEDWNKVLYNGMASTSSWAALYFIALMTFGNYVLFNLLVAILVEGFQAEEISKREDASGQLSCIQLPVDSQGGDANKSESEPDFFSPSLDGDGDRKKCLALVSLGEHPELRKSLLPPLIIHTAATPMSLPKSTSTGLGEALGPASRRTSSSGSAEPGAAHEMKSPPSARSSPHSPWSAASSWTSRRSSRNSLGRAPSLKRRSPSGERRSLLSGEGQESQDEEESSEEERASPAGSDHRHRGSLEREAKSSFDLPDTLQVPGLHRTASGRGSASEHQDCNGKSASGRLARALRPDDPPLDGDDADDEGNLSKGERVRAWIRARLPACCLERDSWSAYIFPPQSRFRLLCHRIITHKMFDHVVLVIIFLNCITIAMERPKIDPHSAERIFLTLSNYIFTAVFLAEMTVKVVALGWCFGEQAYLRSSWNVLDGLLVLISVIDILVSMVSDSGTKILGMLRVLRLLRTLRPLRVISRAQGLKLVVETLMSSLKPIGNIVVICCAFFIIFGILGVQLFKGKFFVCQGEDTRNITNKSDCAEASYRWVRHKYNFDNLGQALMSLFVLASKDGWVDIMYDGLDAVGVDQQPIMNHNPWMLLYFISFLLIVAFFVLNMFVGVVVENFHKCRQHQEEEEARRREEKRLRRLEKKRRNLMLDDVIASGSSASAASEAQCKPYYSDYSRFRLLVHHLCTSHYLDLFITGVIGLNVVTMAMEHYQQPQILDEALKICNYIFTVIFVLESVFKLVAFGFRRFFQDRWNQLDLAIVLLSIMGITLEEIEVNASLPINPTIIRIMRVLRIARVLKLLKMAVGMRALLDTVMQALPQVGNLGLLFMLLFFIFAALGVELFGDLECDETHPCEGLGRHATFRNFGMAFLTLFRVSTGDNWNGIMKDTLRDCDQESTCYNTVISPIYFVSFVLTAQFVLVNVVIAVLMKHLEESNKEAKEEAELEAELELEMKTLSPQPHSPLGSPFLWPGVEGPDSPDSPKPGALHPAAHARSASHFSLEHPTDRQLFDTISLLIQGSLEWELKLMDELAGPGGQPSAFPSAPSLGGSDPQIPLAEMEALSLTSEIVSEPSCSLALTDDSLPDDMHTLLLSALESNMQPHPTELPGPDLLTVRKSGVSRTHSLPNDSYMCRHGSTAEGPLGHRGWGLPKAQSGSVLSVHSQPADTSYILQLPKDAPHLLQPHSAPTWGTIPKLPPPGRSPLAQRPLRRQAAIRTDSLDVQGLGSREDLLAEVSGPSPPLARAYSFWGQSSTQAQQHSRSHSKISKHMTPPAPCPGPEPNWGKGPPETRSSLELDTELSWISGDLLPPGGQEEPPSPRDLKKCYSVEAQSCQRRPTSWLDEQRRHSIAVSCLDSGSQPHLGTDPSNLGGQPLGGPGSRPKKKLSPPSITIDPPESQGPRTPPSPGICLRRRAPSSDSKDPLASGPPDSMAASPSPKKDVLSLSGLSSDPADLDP
T2 sequence (O95180 whole entry): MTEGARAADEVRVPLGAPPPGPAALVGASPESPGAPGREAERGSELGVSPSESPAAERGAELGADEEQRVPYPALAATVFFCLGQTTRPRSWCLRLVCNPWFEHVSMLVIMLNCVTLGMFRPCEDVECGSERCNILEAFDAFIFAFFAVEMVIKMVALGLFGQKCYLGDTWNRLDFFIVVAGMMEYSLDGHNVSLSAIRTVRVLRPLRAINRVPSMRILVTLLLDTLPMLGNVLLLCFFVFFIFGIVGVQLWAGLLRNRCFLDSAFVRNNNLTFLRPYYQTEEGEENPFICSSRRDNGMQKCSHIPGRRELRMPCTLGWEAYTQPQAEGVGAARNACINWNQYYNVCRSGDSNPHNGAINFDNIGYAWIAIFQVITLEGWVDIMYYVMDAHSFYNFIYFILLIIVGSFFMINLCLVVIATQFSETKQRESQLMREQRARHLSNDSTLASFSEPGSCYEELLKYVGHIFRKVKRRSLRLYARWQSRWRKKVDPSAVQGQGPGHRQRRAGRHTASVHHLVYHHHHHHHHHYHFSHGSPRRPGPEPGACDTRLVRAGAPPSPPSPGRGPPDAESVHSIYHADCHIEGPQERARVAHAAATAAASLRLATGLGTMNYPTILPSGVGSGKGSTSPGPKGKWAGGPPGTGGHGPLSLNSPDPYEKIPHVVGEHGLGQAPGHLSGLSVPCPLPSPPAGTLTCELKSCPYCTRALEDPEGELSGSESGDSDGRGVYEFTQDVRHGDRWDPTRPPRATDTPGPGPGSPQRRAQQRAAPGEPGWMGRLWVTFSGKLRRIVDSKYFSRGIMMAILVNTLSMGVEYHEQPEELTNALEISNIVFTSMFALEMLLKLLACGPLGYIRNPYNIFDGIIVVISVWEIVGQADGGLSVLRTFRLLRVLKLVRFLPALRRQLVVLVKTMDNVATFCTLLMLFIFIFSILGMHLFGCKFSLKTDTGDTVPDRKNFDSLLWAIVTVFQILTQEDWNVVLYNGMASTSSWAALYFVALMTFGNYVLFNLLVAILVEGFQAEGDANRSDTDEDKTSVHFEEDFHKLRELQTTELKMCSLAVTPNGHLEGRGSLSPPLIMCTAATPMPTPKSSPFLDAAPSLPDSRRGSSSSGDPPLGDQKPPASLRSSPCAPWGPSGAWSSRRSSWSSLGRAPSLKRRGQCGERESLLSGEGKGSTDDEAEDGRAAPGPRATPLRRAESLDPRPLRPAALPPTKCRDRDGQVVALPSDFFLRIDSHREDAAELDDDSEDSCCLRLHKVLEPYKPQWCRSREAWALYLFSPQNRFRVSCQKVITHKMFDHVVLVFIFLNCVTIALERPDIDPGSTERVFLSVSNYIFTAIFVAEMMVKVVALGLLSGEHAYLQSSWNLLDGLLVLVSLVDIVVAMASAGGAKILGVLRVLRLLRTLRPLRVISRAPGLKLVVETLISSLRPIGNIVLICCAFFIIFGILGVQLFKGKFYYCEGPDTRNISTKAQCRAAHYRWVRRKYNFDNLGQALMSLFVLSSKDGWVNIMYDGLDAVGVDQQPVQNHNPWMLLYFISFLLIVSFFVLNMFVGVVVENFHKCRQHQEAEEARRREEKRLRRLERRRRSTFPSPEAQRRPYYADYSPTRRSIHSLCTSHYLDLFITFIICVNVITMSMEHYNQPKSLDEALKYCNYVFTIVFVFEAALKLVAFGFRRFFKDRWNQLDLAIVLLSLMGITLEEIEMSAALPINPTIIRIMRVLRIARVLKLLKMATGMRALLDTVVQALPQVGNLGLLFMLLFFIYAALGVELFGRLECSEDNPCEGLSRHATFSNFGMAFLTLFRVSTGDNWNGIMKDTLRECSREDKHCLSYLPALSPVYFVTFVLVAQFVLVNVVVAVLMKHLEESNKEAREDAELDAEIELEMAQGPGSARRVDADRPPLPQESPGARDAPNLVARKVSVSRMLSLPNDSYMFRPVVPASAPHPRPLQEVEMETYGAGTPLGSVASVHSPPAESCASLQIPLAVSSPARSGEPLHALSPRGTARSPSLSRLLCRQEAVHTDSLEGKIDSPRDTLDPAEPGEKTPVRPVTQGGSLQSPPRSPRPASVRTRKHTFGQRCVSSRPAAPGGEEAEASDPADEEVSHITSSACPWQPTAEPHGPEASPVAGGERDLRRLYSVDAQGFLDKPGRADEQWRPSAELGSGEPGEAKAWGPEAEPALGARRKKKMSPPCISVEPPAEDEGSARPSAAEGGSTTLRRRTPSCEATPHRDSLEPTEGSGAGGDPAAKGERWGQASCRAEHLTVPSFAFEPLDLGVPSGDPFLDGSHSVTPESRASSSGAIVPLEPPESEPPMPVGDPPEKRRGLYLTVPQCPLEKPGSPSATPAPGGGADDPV

| SMILES | IC50 [1] [µM] | IC50 [2] [µM] | IC50 (hERG K+ channel; human) [µM] | Percent Recording Time in Seizure Activity, Baseline [3] [%] | Percent Recording Time in Seizure Activity, Post-injection [3] [%] | percentage of time in seizure activity compared to both baseline and vehicle [3] | IC50 (hERG K+ channel) [µM] | anti-hyperalgesic activity in the spinal nerve ligation model of neuropathic pain [4] |
| --- | --- | --- | --- | --- | --- | --- | --- | --- |
| CC(C)(C)NC(=O)CN1CCC(CNC(=O)c2cccc(Cl)c2)CC1 [Compound 364, N-((1-(2-(tert-buylamino)-2-oxoethyl)piperidin-4-yl)methyl)-3-chlorobenzamide] | < 0.3 | 0.23 | ≥ 8.3 | 12.12 ± 1.82 | 0.45 ± 0.20 |  |  |  |
| CC1(C)COCCN1C(=O)CN1CCC(CNC(=O)c2cc(C(F)(F)F)cc(C(F)(F)F)c2)CC1 [Compound 578, N-((1-(2-(3,3-dimethylmorpholino)-2-oxoethyl)piperidin-4-yl)methyl)-3,5-bis(trifluoromethyl)benzamide] | < 0.3 | 0.16 |  |  |  |  | 5.4 |  |
| CN(C(=O)CN1CCC(CNC(=O)c2cccc(Cl)c2)CC1)C(C)(C)C(F)(F)F [Compound 580, 3-chloro-N-((1-(2-(methyl(1,1,1-trifluoro-2-methylpropan-2-yl)amino)-2-oxoethyl)piperidin-4-yl)methyl)benzamide] | < 0.3 | 0.22 | ≥ 8.3 |  |  |  |  |  |
| CN(C(=O)CN1CCC(CNC(=O)c2cc(F)cc(Cl)c2)CC1)C1(C)CCC1 [Compound 583, 3-chloro-5-fluoro-N-((1-(2-(methyl(1-methylcyclobutyl)amino)-2-oxoethyl)piperidin-4-yl)methyl)benzamide] | < 0.3 | 0.15 |  |  |  |  | 1.7 |  |
| COc1cc(Cl)cc(C(=O)NCC2CCN(CCNC(=O)C3(C(F)(F)F)CC3)CC2)c1 [Compound 590, 3-chloro-5-methoxy-N-((1-(2-(1-(trifluoromethyl)cyclopropanecarbox-amido)ethyl)piperidin-4-yl)methyl) benzamide] | < 0.3 | 0.07 |  |  |  |  | 2.2 |  |
| CCC1(C)CC(=O)NC1=O (stereo not shown) [ethosuximide] |  |  |  |  |  |  |  | anti-hyperalgesic activity |
| COCC(=O)O[C@]1(CCN(C)CCCc2nc3ccccc3[nH]2)CCc2cc(F)ccc2[C@@H]1C(C)C [mibefradil] |  |  |  |  |  |  |  | anti-hyperalgesic activity |

Now from value to compound, other results behind:

| IC50 [1] [µM] | IC50 [2] [µM] | SMILES | IC50 (hERG K+ channel; human) [µM] | Percent Recording Time in Seizure Activity, Baseline [3] [%] | Percent Recording Time in Seizure Activity, Post-injection [3] [%] | percentage of time in seizure activity compared to both baseline and vehicle [3] | IC50 (hERG K+ channel) [µM] | anti-hyperalgesic activity in the spinal nerve ligation model of neuropathic pain [4] |
| --- | --- | --- | --- | --- | --- | --- | --- | --- |
| 0.8 | 0.56 | CC(C)(C)NC(=O)CN1CCC(CNC(=O)c2cc(F)cc(F)c2)CC1 [Compound 365, N-((1-(2-(tert-butylamino)-2-oxoethyl)piperidin-4-yl)methyl)-3,5-difluorobenzamide] |  |  |  | significant decrease |  |  |
| < 0.3 | 0.05 | CC(C)(C)NC(=O)CN1CCC(CNC(=O)c2cc(F)cc(Cl)c2)CC1 [Compound 367, N-((1-(2-(tert-butylamino)-2-oxoethyl)piperidin-4-yl)methyl)-3-chloro-5-fluorobenzamide] | ≥ 8.3 | 9.99 ± 2.07 | 0.87 ± 0.44 |  |  |  |
| < 0.3 | 0.17 | COc1cc(OC)cc(C(=O)NCC2CCN(CC(=O)NC(C)(C)C)CC2)c1 [Compound 368, N-((1-(2-(tert-butylamino)-2-oxoethyl)piperidin-4-yl)methyl)-3,5-dimethoxybenzamide] | ≥ 8.3 |  |  | significant decrease |  |  |
| < 0.3 | 0.2 | CC(C)(C)S(=O)(=O)NCCN1CCC(CNC(=O)c2cccc(OC(F)(F)F)c2)CC1 [Compound 574, N-((1-(2-(1,1-dimetylethylsulfonamido)ethyl)piperidin-4-yl)methyl)-3-(trifluoromethoxy)benzamide] |  |  |  |  | 4.1 |  |
| < 0.3 | 0.45 | COc1cc(F)cc(C(=O)NCC2CCN(CCNS(=O)(=O)C(C)(C)C)CC2)c1 [Compound 577, N-((1-(2-(1,1-dimethylethylsulfonamido)ethyl)piperidin-4-yl)methyl)-3-fluoro-5-methoxybenzamide] | ≥ 17 |  |  |  |  |  |
| < 0.3 | 0.21 | COc1cc(F)cc(C(=O)NCC2CCN(CC(=O)N(C)C(C)(C)C(F)(F)F)CC2)c1 [Compound 581, 3-fluoro-5-methoxy-N-((1-(2-(methyl(1,1,1-trifluoro-2-methyl-propan-2-yl)amino)-2-oxoethyl)piperidin-4-yl)methyl)benzamide] |  |  |  |  | 11 |  |
